Data published in US20240059698A1 (Accutar Biotechnology Inc., priority 2022, published 2024).
Read-outs that look alike come from different tables or passages of the source.

Experiments:
Assay type in all cases: cell-based
[1] = system: HCC827-YVMA cells (human ERBB2 exon20 insertion mutant A775_G776ins YVMA); experiment: Cell growth inhibition (CellTiter-Glo), HCC827-YVMA; conditions: 72 h, read-out: Cell growth inhibition, GI50 (nM) HCC827-YVMA
Procedure, shortened: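 HCC827 cells transduced with lentiviral codon-optimized mutant (ERBB2 A775_G776insYVMA or EGFR V769_D770insASV), endogenous EGFR knocked out by CRISPR, single clone selected. Cells seeded overnight in RPMI/10% FBS, then exposed to serially diluted compounds at 37 °C for 3 days; viability read by CellTiter-Glo luminescence.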

A431 cells = experiment: Cell growth inhibition (CellTiter-Glo), A431; conditions: Homo sapiens, A-431, 72 h, 3 days
Procedure, shortened: (§1)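 HCC827 cells in RPMI and A431 cells in DMEM (both 10% FBS) were seeded at 5000 cells/well and left overnight. They were then exposed to compound dilutions for 3 days at 37° C. Viability was read by CellTiter-Glo luminescence.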

[2] = system: HCC827-SVD cells (human EGFR exon 20 insertion mutant D770_N771insSVD); experiment: Cell growth inhibition (CellTiter-Glo), HCC827-SVD; conditions: 72 h, 3 days
Procedure, shortened: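 HCC827 cells with endogenous EGFR knocked out and lentivirally expressing the insertion mutant (single clone) were seeded at 5000 cells/well in RPMI with 10% FBS. After overnight, compounds added; 3 days at 37 °C, then CellTiter-Glo luminescence.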

[3] = system: HCC827-ASV cells (human EGFR exon 20 insertion mutant V769_D770insASV); experiment: Cell growth inhibition (CellTiter-Glo), HCC827-ASV; conditions: 72 h, read-out: Cell growth inhibition, GI50 (nM) HCC827-ASV
Description: Generation of HCC827-SVD, HCC827-ASV, and HCC827-YVMA cell lines. The HCC827-SVD cell line was generated by first transducing HCC827 cells (ATCC) with lentiviral particles expressing codon-optimized human EGFR exon 20 insertion mutant D770_N771insSVD, and then selecting under 5 µg/mL puromycin treatment for a week. The resulting cells were further transduced with lentiviral particles carrying EGFR sgRNA and CAS9 to knockout the endogenous alleles of EGER and then selected under 500 µg/mL hygromycin B treatment for two weeks. The limiting dilution approach was used to subsequently generate the single clone of the HCC827-SVD stable cell line. Endogenous EGFR knockout was confirmed by Sanger sequencing of cell genomic DNA, and expression of exogenous mutant EGFR was verified by Western blot analysis.
HCC827-ASV and HCC827-YVMA cell lines were generated in a similar approach as HCC827-SVD, except that HCC827 cells (ATCC) were first transduced with lentiviral particles expressing codon-optimized human EGFR exon 20 insertion mutant V769_D770insASV and human ERBB2 exon20 insertion mutant A775_G776ins YVMA, respectively.
2. Cell Growth Inhibition for HCC827, HCC827-SVD, HCC827-ASV, HCC827-YVMA, and A431.
HCC827(ATCC), HCC827-SVD, HCC827-ASV, and HCC827-YVMA cells were seeded in 96-well plates at 5000 cells/well in 90 μL of RPMI growth medium containing 10% FBS and 1% Penicillin Streptomycin. A431 (ATCC) cells were seeded in 96-well plates at 5000 cells/well in 90 μL of DMEM growth medium containing 10% FBS and 1% Penicillin Streptomycin. Cells were incubated at 37° C. overnight and then administered with 10 μL 10× test compounds prepared in the growth medium at various concentrations. After administration of the compounds, cells were incubated at 37° C. for 3 days. Before the CellTiter-Glo assay, the plates were equilibrated at room temperature for approximately 30 minutes. 100 ul of CellTiter-Glo reagent (Promega) was added to each well. The plates were then incubated at room temperature for 10 minutes and luminescence was recorded by the EnSight® multimode plate reader (PerkinElmer). Table 7 listed selected compounds in cellular growth assay.

HCC827 cells = experiment: Cell growth inhibition (CellTiter-Glo), HCC827; conditions: Homo sapiens, 72 h, 3 days
Procedure, shortened: as §1

[4] = HCC827-YVMA cells, 3 days, CellTiter-Glo
[5] = HCC827-ASV cells, 3 days, CellTiter-Glo

Compound	GI50 [1, 4] [nM]	GI50 (A431 cells) [nM]	GI50 [2] [nM]	GI50 [3, 5] [nM]	GI50 (HCC827 cells) [nM]	GI50 [1] [nM]	GI50 [3] [nM]
C=CC(=O)N1CCC(c2c[nH]c3ncnc(Nc4ccc(Oc5ccnc(NC(=O)C6CCCC6)c5)cc4F)c23)CC1 [Compound 90, N-(4-(4-((5-(1-acryloylpiperidin-4-yl)-7H-pyrrolo[2,3-d]pyrimidin-4-yl)amino)-3-fluorophenoxy)pyridin-2-yl)cyclopentanecarboxamide]	< 50	200 to 1000	50 to 200	< 50	50 to 200	–	–
C=CC(=O)N1CCC(c2c[nH]c3ncnc(Nc4ccc(Oc5ccnc(Nc6ccccn6)c5)cc4F)c23)CC1 [Compound 135, 1-(4-(4-((2-fluoro-4-((2-(pyridin-2-ylamino)pyridin-4-yl)oxy)phenyl)amino)-7H-pyrrolo[2,3-d]pyrimidin-5-yl)piperidin-1-yl)prop-2-en-1-one]	< 50	200 to 1000	< 50	< 50	> 1000	–	–
C=CC(=O)N1CCC(c2c[nH]c3ncnc(Nc4ccc(Oc5ccnc(-n6ccc(OC)n6)c5)cc4F)c23)CC1 [Compound 136, 1-(4-(4-((2-fluoro-4-((2-(3-methoxy-1H-pyrazol-1-yl)pyridin-4-yl)oxy)phenyl)amino)-7H-pyrrolo[2,3-d]pyrimidin-5-yl)piperidin-1-yl)prop-2-en-1-one]	< 50	> 1000	50 to 200	< 50	200 to 1000	–	–
C=CC(=O)N1CCC(c2c[nH]c3ncnc(Nc4ccc(OCc5cscn5)c(Cl)c4F)c23)CC1 [Compound 216, 1-(4-(4-((3-chloro-2-fluoro-4-(thiazol-4-ylmethoxy)phenyl)amino)-7H-pyrrolo[2,3-d]pyrimidin-5-yl)piperidin-1-yl)prop-2-en-1-one]	< 50	–	< 50	< 50	–	–	–
C=CC(=O)N1CCC(c2c[nH]c3ncnc(Nc4ccc(OCc5csc(C)n5)c(Cl)c4)c23)CC1 [Compound 217, 1-(4-(4-((3-chloro-4-((2-methylthiazol-4-yl)methoxy)phenyl)amino)-7H-pyrrolo[2,3-d]pyrimidin-5-yl)piperidin-1-yl)prop-2-en-1-one]	< 50	–	< 50	< 50	–	–	–
C=CC(=O)N1CCC(c2c[nH]c3ncnc(Nc4ccc(O[C@H](C)c5cscn5)c(Cl)c4)c23)CC1 [Compound 218, (R)-1-(4-(4-((3-chloro-4-(1-(thiazol-4-yl)ethoxy)phenyl)amino)-7H-pyrrolo[2,3-d]pyrimidin-5-yl)piperidin-1-yl)prop-2-en-1-one]	< 50	–	< 50	< 50	–	–	–
C=CC(=O)N1CCC(c2c[nH]c3ncnc(Nc4ccc(OCc5ncsc5C)c(Cl)c4)c23)CC1 [Compound 219, 1-(4-(4-((3-chloro-4-((5-methylthiazol-4-yl)methoxy)phenyl)amino)-7H-pyrrolo[2,3-d]pyrimidin-5-yl)piperidin-1-yl)prop-2-en-1-one]	< 50	–	< 50	< 50	–	–	–
C=CC(=O)N1CCC(c2c[nH]c3ncnc(Nc4ccc(OCc5ccccn5)c(Br)c4F)c23)CC1 [Compound 220, 1-[4-[4-[3-bromo-2-fluoro-4-(2-pyridylmethoxy)anilino]-7H-pyrrolo[2,3-d]pyrimidin-5-yl]-1-piperidyl]prop-2-en-1-one]	< 50	–	< 50	< 50	–	–	–
C=CC(=O)N1CCC(c2c[nH]c3ncnc(Nc4cc(Cl)c(OCc5ccccn5)cc4F)c23)CC1 [Compound 221, 1-(4-(4-((5-chloro-2-fluoro-4-(pyridin-2-ylmethoxy)phenyl)amino)-7H-pyrrolo[2,3-d]pyrimidin-5-yl)piperidin-1-yl)prop-2-en-1-one]	< 50	–	< 50	< 50	–	–	–
C=CC(=O)N1CCC(c2c[nH]c3ncnc(Nc4cc(Cl)c(OCc5ccccn5)cc4Cl)c23)CC1 [Compound 222, 1-[4-[4-[2,5-dichloro-4-(2-pyridylmethoxy)anilino]-7H-pyrrolo[2,3-d]pyrimidin-5-yl]-1-piperidyl]prop-2-en-1-one]	< 50	–	< 50	< 50	–	–	–
C=CC(=O)N1CCC(c2c[nH]c3ncnc(Nc4ccc(OCc5ncc(F)s5)c(Cl)c4)c23)CC1 [Compound 223, 1-[4-[4-[3-chloro-4-[(5-fluorothiazol-2-yl)methoxy]anilino]-7H-pyrrolo[2,3-d]pyrimidin-5-yl]-1-piperidyl]prop-2-en-1-one]	< 50	–	< 50	< 50	–	–	–
C=CC(=O)N1CCC(c2c[nH]c3ncnc(Nc4ccc(OCc5cc6sccc6cn5)c(Cl)c4)c23)CC1 [Compound 224, 1-(4-(4-((3-chloro-4-(thieno[3,2-c]pyridin-6-ylmethoxy)phenyl)amino)-7H-pyrrolo[2,3-d]pyrimidin-5-yl)piperidin-1-yl)prop-2-en-1-one]	–	–	< 50	–	–	< 50	< 50
C=CC(=O)N1CCC(c2c[nH]c3ncnc(Nc4ccc5c(cnn5Cc5cccc(F)c5)c4)c23)CC1 [Compound 226, 1-(4-(4-((1-(3-fluorobenzyl)-1H-indazol-5-yl)amino)-7H-pyrrolo[2,3-d]pyrimidin-5-yl)piperidin-1-yl)prop-2-en-1-one]	< 50	–	< 50	< 50	–	–	–
[2H]C([2H])(Oc1ccc(Nc2ncnc3[nH]cc(C4CCN(C(=O)C=C)CC4)c23)cc1Cl)c1ccccn1 [Compound 227, 1-(4-(4-((3-chloro-4-(pyridin-2-ylmethoxy-d2)phenyl)amino)-7H-pyrrolo[2,3-d]pyrimidin-5-yl)piperidin-1-yl)prop-2-en-1-one]	< 50	–	< 50	< 50	–	–	–
C=CC(=O)N1CCC(c2c[nH]c3ncnc(Nc4ccc(OCc5cccc(F)c5)c(Cl)c4)c23)CC1 [Compound 228, 1-(4-(4-((3-chloro-4-((3-fluorobenzyl)oxy)phenyl)amino)-7H-pyrrolo[2,3-d]pyrimidin-5-yl)piperidin-1-yl)prop-2-en-1-one]	< 50	–	< 50	< 50	–	–	–
C=CC(=O)N1CCC(c2c[nH]c3ncnc(Nc4ccc(OCc5ccsn5)c(Cl)c4)c23)CC1 [Compound 229, 1-(4-(4-((3-chloro-4-(isothiazol-3-ylmethoxy)phenyl)amino)-7H-pyrrolo[2,3-d]pyrimidin-5-yl)piperidin-1-yl)prop-2-en-1-one]	< 50	–	< 50	< 50	–	–	–
C=CC(=O)N1[C@@H]2CC[C@H]1CC(c1c[nH]c3ncnc(Nc4ccc(OCc5ccccn5)c(Cl)c4)c13)C2 (stereo partly shown) [Compound 230]	< 50	–	< 50	< 50	–	–	–
C=CC(=O)N1CCC(c2c[nH]c3ncnc(Nc4ccc(Oc5ccnc(NC(=O)C6CCC6)c5)cc4F)c23)CC1 [Compound 231, N-(4-(4-((5-(1-acryloylpiperidin-4-yl)-7H-pyrrolo[2,3-d]pyrimidin-4-yl)amino)-3-fluorophenoxy)pyridin-2-yl)cyclobutanecarboxamide]	50 to 200	–	50 to 200	50 to 200	–	–	–
C=CC(=O)N1CCC(c2c[nH]c3ncnc(Nc4ccc(Oc5ccnc(NC(=O)C6CC6)c5)cc4F)c23)CC1 [Compound 232, N-(4-(4-((5-(1-acryloylpiperidin-4-yl)-7H-pyrrolo[2,3-d]pyrimidin-4-yl)amino)-3-fluorophenoxy)pyridin-2-yl)cyclopropanecarboxamide]	< 50	> 1000	< 50	< 50	–	–	–
